# Results published in paper PMC9942619, “Oseltamivir phosphate for suspension is bioequivalent to TAMIFLU in healthy volunteers: a randomized, open-label clinical study” (BMC Pharmacology & Toxicology, 2023).
# Tests used:
# [1] = Single-dose crossover pharmacokinetics of oseltamivir and oseltamivir carboxylate in plasma (HPLC-MS/MS, non-compartmental analysis); type: in vivo, healthy Chinese subjects; conditions: fed vs fasting; plasma analyte
# Description: This study was developed in healthy subjects in the fasting or postprandial state, using a single-dose, randomized, open-label, two-period, two-sequence, self-crossover design. It authorized by the Ethics Committee of the First Affiliated Hospital of Bengbu Medical College. The ethical approval process complies with the requirements of Good Clinical Practice (GCP), the Declaration of Helsinki and relevant Chinese laws and regulations. Registration number CTR20200764 at 26-Apr-2020. http://www.chinadrugtrials.org.cn/clinicaltrials.searchlist.dhtml.
# According to "the Guiding Principles for Human Bioavailability and Bioequivalence test of Pharmaceutical Preparations (2015 Edition)", "the Guiding Principles for Human Bioequivalence Research of Chemical Drug Imitations with Pharmacokinetic Parameters as the End Point Evaluation Indicators", and recommended dose in Tamiflu® instructions, the single oral dose of 75 mg/12.5 mL was determined for the reference preparation and test preparation of this study. […] Assuming one-sided α = 0.05, β = 0.2, %CV of 31.87%, a mean ratio F between the test product and reference product of 1, and the bioequivalence interval of 80.00–125.00%, the sample size of the two-period, crossover study design is 35 cases, calculated by PASS software. […] The quantitative linear range of oseltamivir is 0.500–200 ng/mL, and the LLOQ is 0.500 ng/mL. The quantitative linear range of oseltamivir carboxylate is 4.00–800 ng/mL, and the LLOQ is 4.00 ng/mL.
# Pharmacokinetic parameters of oseltamivir and oseltamivir carboxylate were calculated using Phoenix WinNonlin (Pharsight Corporation, 8.3.1) based on individual blood concentrations and sampling time (calculated by actual sampling time) using non-compartmental analysis (NCA), Cmax, Tmax, AUC0-t, AUC0-∞, t1/2, λz, as well as %AUCex for oseltamivir and oseltamivir carboxylate were included. […]
# [2] = design: method as in doi:10.1002/14651858.CD008965.pub4, PMID 25640810, PMID 12908848; conditions: cited from earlier work
# [3] = design: method as in earlier work; conditions: used for sample size estimation; cited from earlier work
# influenza pneumonia = tested on: influenza pneumonia; design: method as in PMID 33718494; conditions: early treatment compared with late treatment; cited from earlier work
Structure (SMILES),"Cmax, AUC0-t under fed conditions [1]",change of AUC0-∞ after feeding [1],"incidence of other side effects (conjunctivitis, rhinorrhagia, allergy, cardiac arrhythmias, gastrointestinal bleeding, neuropsychiatric events etc.) [2]",incidence of nausea ([2]; most common side effects),incidence of vomiting ([2]; most common side effects),intra-individual coefficient of variation (%CV) of AUC [3],intra-individual coefficient of variation (%CV) of Cmax [3],reduction in ICU mortality (influenza pneumonia)
CCC(CC)O[C@@H]1C=C(C(=O)O)C[C@H](N)[C@H]1NC(C)=O [oseltamivir carboxylate],lowered,decreases,–,–,–,–,–,–
CCOC(=O)C1=C[C@@H](OC(CC)CC)[C@H](NC(C)=O)[C@@H](N)C1 [oseltamivir phosphate],–,–,< 1%,10%,2–15%,–,–,–
CCOC(=O)C1=C[C@@H](OC(CC)CC)[C@H](NC(C)=O)[C@@H](N)C1 [oseltamivir],–,increases,–,–,–,7.24–7.35%,21.16–31.87%,33%
